Like-named read-outs stand apart in the source and are kept apart here.
Experiments:
B^0AT1 [1] = conditions: rat brush-border B^0AT1 in proteoliposomes; ref Pochini et al., 2014; cited from earlier work
B^0AT1 [2] = molecular target: T1, B^0AT1 (Homo sapiens, UniProt Q695T7); assay: Radioactive flux assay (radiolabelled leucine/isoleucine uptake) in CHO-BC cells; type: cell-based; conditions: 150 μM [14C]leucine or [14C]isoleucine, 6 min, 37°C
T1 construct: expressed in transfected cells
T1 sequence (Q695T7 1-634): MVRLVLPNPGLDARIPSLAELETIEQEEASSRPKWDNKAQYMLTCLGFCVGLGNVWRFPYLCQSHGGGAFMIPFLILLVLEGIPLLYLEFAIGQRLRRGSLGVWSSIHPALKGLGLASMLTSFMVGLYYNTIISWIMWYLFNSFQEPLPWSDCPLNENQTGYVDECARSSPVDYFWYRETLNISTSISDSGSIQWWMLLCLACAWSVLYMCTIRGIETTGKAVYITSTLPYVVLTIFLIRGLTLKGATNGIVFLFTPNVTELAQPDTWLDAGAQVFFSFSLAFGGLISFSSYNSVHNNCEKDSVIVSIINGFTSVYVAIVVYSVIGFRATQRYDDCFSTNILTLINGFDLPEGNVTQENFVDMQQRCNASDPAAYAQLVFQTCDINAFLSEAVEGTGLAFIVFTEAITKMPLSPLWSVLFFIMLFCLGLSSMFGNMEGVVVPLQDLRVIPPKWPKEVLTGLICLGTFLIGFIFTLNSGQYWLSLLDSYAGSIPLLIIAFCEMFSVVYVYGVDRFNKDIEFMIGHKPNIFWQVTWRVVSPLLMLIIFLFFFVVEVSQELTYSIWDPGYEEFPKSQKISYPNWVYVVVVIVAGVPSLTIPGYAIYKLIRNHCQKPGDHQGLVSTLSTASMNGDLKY
T1 sequence (Q9HBJ8 15-222 partner): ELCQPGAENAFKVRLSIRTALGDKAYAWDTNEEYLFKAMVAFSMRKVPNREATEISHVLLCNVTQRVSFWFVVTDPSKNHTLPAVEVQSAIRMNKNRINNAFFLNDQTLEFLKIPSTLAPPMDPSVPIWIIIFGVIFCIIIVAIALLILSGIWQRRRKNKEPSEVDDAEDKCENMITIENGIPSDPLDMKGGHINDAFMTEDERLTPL
Experimental: CHO-BC cells with passage numbers from 3 to 10 were used in radio-labelled uptake assays. Before the assay, the cells were seeded out in 35 mm dishes (Corning) and maintained for 48–72 h until reaching 80–90% confluence. To initiate transport, the culture medium was removed and the cells washed three times with HBSS + G. Subsequently, cells were incubated with HBSS + G, radiolabelled substrates (150 μM L-[U-^14C]leucine or 150 μM L-[U-^14C]isoleucine) and inhibitors as indicated in the figures or table in a 37°C water bath for 6 min. To terminate transport, cells were washed three times with ice-cold HBSS pH 7.5. For measuring sodium-independent uptake, NaCl in Hank’s buffer was replaced by NMDG-Cl. Cells were then harvested by homogenizing with 500 µl of 0.1 M HCl. An aliquot of 400 µl was used for scintillation counting and the remainder for protein quantification. To investigate inhibition of ASCT2, uptake of 100 μM [^14C]glutamine was measured in 143B cells in the absence and presence of inhibitor (at 10 μM and 50 μM). To measure inhibition of LAT1, uptake of [^14C]leucine was measured in HBSS + G in which NaCl was replaced by NMDG-Cl in 143B cells in the absence and presence of inhibitor (at 10 μM and 50 μM).
(§1) Data are shown as mean ± S.D., transport activities indicated as Na^+-dependent net uptake, were calculated by subtracting the uptake activity in the absence of Na^+ from the total uptake rate. The fluorescent signals measured in the FLIPR assay were normalized to baseline readings before the addition of substrates. Data are presented as percentage of baseline at each time point. IC50 was calculated using the equation: y=ymax(1−[x]/[x]+IC50) .

B^0AT1 [3] = molecular target: T1, B^0AT1; assay: Membrane potential detecting FLIPR assay in CHO-BC cells; type: cell-based; conditions: 30 min pre-incubation, leucine or isoleucine 1.5 mM
Experimental: CHO-B^0AT1-collectrin Cells (CHO-BC) were generated, cultured, and used as described recently ([Cheng et al., 2017]). Expression levels of B^0AT1 in CHO-BC cells decline over time. As a result, passages <10 were used for experiments. The cells were maintained in Ham’s F-12 glutamax media with 10% (v/v) fetal bovine serum (FBS, Heat inactivated, 10082147 Gibco), 1mM glutamine, 300μg/ml hygromycin B and 275 μg/ml geneticin.
Membrane depolarisation induced by amino acid transport was monitored using a FLIPR® kit (Molecular Devices, R8042 BLUE DYE). Before the assay, CHO-BC cells were seeded out at a density of 60,000 cells/well and maintained in a flat transparent bottom 96-well plate (Corning) overnight. After washing three times with Hank’s balanced salt solution (136.6 mM NaCl, 5.4 mM KCl, 0.44 mM KH2PO4, 2.7mM Na2HPO4, 1.26mM CaCl2, 0.5mM MgCl2, 0.4 mM MgSO4, 10mM HEPES, pH 7.5, supplemented with 5 mM glucose, abbreviated HBSS + G), cells in each well were incubated for 30 min at room temperature in 50 µl of HBSS pH 7.5 containing 5 mM glucose and compounds as indicated, together with 50 µl of dye-loading buffer provided with the kit. Subsequently, the fluorescence signal was detected every 10 s before and after the addition of leucine or isoleucine at a final concentration of 1.5 mM. Fluorescence was detected at room temperature using a PerkinElmer multimode Plate Reader, with an excitation wavelength of 530 nm and emission wavelength of 565 nm.
as §1

B^0AT1 [4] = molecular target: T1, B^0AT1; conditions: reference not printed at the place; ref Danthi et al., 2019; cited from earlier work
B^0AT1 [5] = molecular target: T2, B^0AT1 (Mus musculus, UniProt Q9D687); assay: Na+-dependent leucine uptake in inverted sections of mouse intestine; conditions: 50 μM inhibitor, 150 μM [14C]leucine
T2 construct: from tissue; host or cells: small intestine of C57/BL6J female mice, inverted 1 cm sections
Description: For uptake assays with inverted sections of mouse small intestine, 5–7 months old C57/BL6J female mice were sacrificed by cervical dislocation (Animal ethics protocol A2016/41, Australian National University). The small intestine was removed and the intestinal lumen was rinsed with ice-cold 0.9% NaCl. Subsequently, the small intestine was inverted on a metal rod to expose the mucosa. The inverted intestine was then cut into 1 cm pieces and fitted onto enzyme spatulas, which were immersed in HBSS pH 7.5 supplemented with 1 mM glutamine and protease inhibitor (Roche Complete). After washing twice in modified HBSS pH 7.5 (containing 10% NaCl + 90% NMDG-Cl for Na^+-dependent uptake and 100% NMDG-Cl for Na^+-independent uptake, both buffers supplemented with 1 mM glutamine) to remove residual compounds, the segments were pre-incubated in the same buffer in the presence of 50 µM of transport inhibitor and protease inhibitors for 15 min. At the end of the pre-incubation, the segments were transferred for 30 s into uptake buffer at 37°C (HBSS pH 7.5 supplemented with 150 μM [^14C]leucine and 50 µM transport inhibitor). For Na^+-dependent uptake regular HBSS was used, for Na^+-independent uptake NaCl was replaced by NMDG-Cl. Subsequently, the segments were rinsed three times in ice-cold HBSS pH 7.5 and lysed in 400 µl of 10% SDS. After 2–3 h, the lysed tissues were analyzed by scintillation counting.
To test whether the novel B^0AT1 inhibitors block the transporter in a more physiological environment, we studied leucine uptake in inverted sections of mouse intestine ( Figure 6C ). We established previously that Na^+-dependent leucine uptake (blue bars) in this system is mediated by B^0AT1 ([Broer et al., 2011]). In addition leucine uptake has a Na^+-independent transport component (salmon coloured bars), which is most likely mediated by rbat/b^0,+AT. Because of variability between animals, all data were normalized to uninhibited controls from the same animal.

T2 sequence (Q9D687 whole entry): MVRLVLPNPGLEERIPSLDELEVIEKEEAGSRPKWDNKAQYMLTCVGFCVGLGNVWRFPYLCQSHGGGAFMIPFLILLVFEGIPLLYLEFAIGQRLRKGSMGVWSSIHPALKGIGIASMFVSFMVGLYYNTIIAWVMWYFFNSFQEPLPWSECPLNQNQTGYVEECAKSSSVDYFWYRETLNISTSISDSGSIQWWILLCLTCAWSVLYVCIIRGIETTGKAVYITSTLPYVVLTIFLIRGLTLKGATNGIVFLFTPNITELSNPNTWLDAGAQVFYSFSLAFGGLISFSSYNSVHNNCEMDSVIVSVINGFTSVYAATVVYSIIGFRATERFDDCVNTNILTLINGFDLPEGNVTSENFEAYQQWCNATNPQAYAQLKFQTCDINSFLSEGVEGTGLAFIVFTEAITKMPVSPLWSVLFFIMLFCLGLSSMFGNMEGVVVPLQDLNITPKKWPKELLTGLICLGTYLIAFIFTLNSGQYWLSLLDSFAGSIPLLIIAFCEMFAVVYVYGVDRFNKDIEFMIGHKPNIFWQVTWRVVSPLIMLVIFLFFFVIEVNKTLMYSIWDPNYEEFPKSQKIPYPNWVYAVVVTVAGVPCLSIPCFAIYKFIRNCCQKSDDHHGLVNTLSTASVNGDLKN
T2 sequence (Q8R0I0 18-805 partner): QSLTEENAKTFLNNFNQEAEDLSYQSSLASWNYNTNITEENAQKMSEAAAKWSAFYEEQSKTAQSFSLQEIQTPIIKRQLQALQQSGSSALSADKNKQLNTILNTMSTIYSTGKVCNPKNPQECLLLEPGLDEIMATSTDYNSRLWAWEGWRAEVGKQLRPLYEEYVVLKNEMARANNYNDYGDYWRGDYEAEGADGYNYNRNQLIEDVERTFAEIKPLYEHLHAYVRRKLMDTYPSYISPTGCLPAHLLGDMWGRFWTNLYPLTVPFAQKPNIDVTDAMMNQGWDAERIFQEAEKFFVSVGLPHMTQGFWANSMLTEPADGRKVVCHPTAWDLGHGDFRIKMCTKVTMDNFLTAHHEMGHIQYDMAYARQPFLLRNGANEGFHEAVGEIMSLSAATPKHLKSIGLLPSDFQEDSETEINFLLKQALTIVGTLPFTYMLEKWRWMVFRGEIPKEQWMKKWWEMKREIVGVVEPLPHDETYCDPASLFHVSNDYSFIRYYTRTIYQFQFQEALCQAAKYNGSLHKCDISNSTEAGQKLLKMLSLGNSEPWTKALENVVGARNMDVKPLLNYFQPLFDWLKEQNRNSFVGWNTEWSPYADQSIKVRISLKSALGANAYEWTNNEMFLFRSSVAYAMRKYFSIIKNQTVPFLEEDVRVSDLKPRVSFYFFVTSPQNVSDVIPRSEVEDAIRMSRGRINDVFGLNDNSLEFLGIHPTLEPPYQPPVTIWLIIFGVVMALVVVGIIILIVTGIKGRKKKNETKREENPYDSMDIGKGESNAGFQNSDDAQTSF

Row | IC50 (B^0AT1 [2]) | IC50 (B^0AT1 [3]) | Inhibition of Na+-dependent leucine uptake (B^0AT1) ex vivo (B^0AT1 [5]) | Structure (SMILES) | IC50 (B^0AT1 [1]) | IC50 (B^0AT1 [4])
1 |  |  |  | CS(=O)(=O)Nc1ccc([N+](=O)[O-])cc1Oc1ccccc1 [Nimesulide] | 23 µM | 
2 | 19 ± 6 µM | 33 ± 9 µM |  | COc1ccc(C(CCCN2CCOCC2)c2ccc(F)cc2)cc1 (stereo not shown) [Compound E-68] |  | 
3 | 16 ± 8 µM | 20 ± 1 µM |  | COc1ccc(C(CCCN2CCOCC2)c2ccc(C)cc2)cc1 (stereo not shown) [Compound E-62] |  | 
4 | 39 ± 10 µM | 32 ± 14 µM |  | COc1ccc(C(CCCN2CCCCC2)c2ccc(C)cc2)cc1 (stereo not shown) [Compound E-63] |  | 
5 | 46 ± 7 µM | 94 ± 20 µM |  | COc1ccc(C(CCCN2CCCCC2)c2ccc(F)cc2)cc1 (stereo not shown) [Compound E-69] |  | 
6 | 8 ± 2 µM | 36 ± 11 µM |  | Cc1ccc(C(CCCN2CCCCC2)c2ccc3c(c2)OCO3)cc1 (stereo not shown) [Compound E-85] |  | 
7 | 34 ± 7 µM | 39 ± 4 µM |  | COc1ccc(C(CCCN2CCOCC2)c2ccc3c(c2)OCO3)cc1 (stereo not shown) [Compound E-89] |  | 
8 | 17 ± 9 µM | 21 ± 6 µM |  | COc1ccc(C(CCCN2CCOCC2)c2ccccc2)cc1 (stereo not shown) [Compound E-47] |  | 
9 | 8 ± 4 µM | 31 ± 15 µM |  | COc1ccc(C(CCCN2CCCCC2)c2ccccc2)cc1 (stereo not shown) [Compound E-53] |  | 
10 | 19 ± 4 µM | 31 ± 3 µM |  | Cc1ccc(C(CCCN2CCOCC2)c2ccc3c(c2)OCO3)cc1 (stereo not shown) [Compound E-84] |  | 
11 |  | 0.5 ± 0.08 µM | limited capacity to inhibit B^0AT1 | CCNC(=O)/C=C/c1cccc(Br)c1 [Cinromide, cinromide, reference compound] |  | 0.3 µM
12 | 71 ± 8 µM | 44 ± 9 µM |  | CN1[C@@H]2CC[C@H]1C[C@@H](OC(c1ccccc1)c1ccccc1)C2 [Benztropin, benztropine, reference compound] |  | 
13 | 25 ± 8 µM | 74 ± 19 µM |  | COc1ccc(C(CCCN2CCCCC2)c2ccc3c(c2)OCO3)cc1 (stereo not shown) [Compound E-90] |  | 

Row | Structure (SMILES) | IC50 (B^0AT1 [2]) | IC50 (B^0AT1 [3]) | Inhibition of Na+-dependent leucine uptake (B^0AT1) ex vivo (B^0AT1 [5]) | IC50 (B^0AT1 [1]) | IC50 (B^0AT1 [4])
14 | c1ccc(CCCN2CCCCC2Cc2ccccc2)cc1 (stereo not shown) [NSC22789, reference compound] | 78 ± 16 µM | 90 ± 21 µM |  |  | 
